Measured values taken from US10604535B2, “Compounds, compositions and methods” (Denali Therapeutics Inc., priority 2016, dated 2020).

Tests used:
[1] = tested on: human cryopreserved hepatocytes; experiment: Metabolic stability (hepatocytes); conditions: human cryopreserved hepatocytes
Protocol: The metabolic stability of compounds was evaluated in human cryopreserved hepatocytes (BioreclamationlVT, NY, USA) in duplicate. Test articles (or controls) were added to a 24-well incubation plate (Becton Dickinson Labware, USA) containing 0.5×10^6 hepatocytes/mL in suspension. The plate was held at 37° C. and agitated with constant orbital shaking (orbital speed at 350 rpm). At each time point (0, 5, 10, 15, 20, 30, 45, 60, 90, 120, 150 and 180 min) a Tecan Evo robot aspirated 50 μL of the incubation mixture and 100 μL of acetonitrile containing internal standard to quench the reaction. […] Samples were centrifuged (3000 rpm for 10 minutes) and the plate sealed prior to injection onto an LC-MS/MS system.
The appropriate parent/daughter ions were monitored for the test article and IS with the LC-MS/MS system. The intrinsic clearance (Clint; expressed μL/min/million cells) was determined from the first order elimination constant (k, min^−1) of test article decay and the volume of the incubation. […] The intrinsic organ CL was then converted to the hepatic clearance (CLhep) using the well-stirred model as shown below, where Qh is human hepatic blood flow.
Hepatic clearance is expressed as mL/min/kg. The hepatic clearance relates to the flow of blood through the liver that is completely cleared of the compound.

[2] = biological target: GST-hRIPK1 (8-327) (Homo sapiens (Human), UniProt Q13546); experiment: Fluorescent Polarization Binding (FP Binding) assay
[3] = tested on: FADD-deficient Jurkat cells; experiment: Cellular necroptosis assay (human TNFα-induced necrosis, CellTiter-Glo); type: cell-based; conditions: Homo sapiens, Jurkat, 48 h, TNFα 10 ng/mL, read-out: Cell IC50

GST-hRIPK1 (8-327), sequence (Q13546 8-327): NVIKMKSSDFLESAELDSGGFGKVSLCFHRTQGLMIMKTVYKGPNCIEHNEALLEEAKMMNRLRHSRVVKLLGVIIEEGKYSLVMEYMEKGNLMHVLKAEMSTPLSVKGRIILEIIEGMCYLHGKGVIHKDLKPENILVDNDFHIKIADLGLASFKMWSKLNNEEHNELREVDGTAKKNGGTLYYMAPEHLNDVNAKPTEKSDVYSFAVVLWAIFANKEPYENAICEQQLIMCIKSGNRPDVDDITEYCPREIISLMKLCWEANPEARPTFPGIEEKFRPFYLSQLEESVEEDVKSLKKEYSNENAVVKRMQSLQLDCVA

Structure (SMILES) | Human hepatocyte CLhep Avg [1] [L/h/kg] | IC50 [2] [nM] | IC50 [3] [nM]
CN1C(=O)[C@@H](NC(=O)c2cc(Cc3ccccc3)on2)[C@H]2C[C@H]2c2nccnc21 [Example 197, 5-benzyl-N-((7S,7aS,8aR)-5-methyl-6-oxo-5,6,7,7a,8,8a-hexahydrocyclopropa[d]pyrazino[2,3-b]azepin-7-yl)isoxazole-3-carboxamide] | 0.78 | 0.1 to 1000 | –
CN1C(=O)[C@@H](NC(=O)c2cc(Cc3ccccc3)on2)COc2ccccc21 [C, reference compound] | 1.14 | – | 1
CN1C(=O)[C@@H](NC(=O)c2cn(Cc3ccccc3)nn2)[C@H]2C[C@H]2c2nccnc21 [Example 195, 1-benzyl-N-((7S,7aS,8aR)-5-methyl-6-oxo-5,6,7,7a,8,8a-hexahydrocyclopropa[d]pyrazino[2,3-b]azepin-7-yl)-1H-1,2,3-triazole-4-carboxamide] | 0.426 | 0.1 to 1000 | –
CN1C(=O)[C@@H](NC(=O)c2nnc(Cc3ccccc3)s2)[C@H]2C[C@H]2c2nccnc21 [Example 198, 5-benzyl-N-((7S,7aS,8aR)-5-methyl-6-oxo-5,6,7,7a,8,8a-hexahydrocyclopropa[d]pyrazino[2,3-b]azepin-7-yl)-1,3,4-thiadiazole-2-carboxamide] | 0.51 | 0.1 to 1000 | –
CN1C(=O)[C@@H](NC(=O)c2cn(Cc3ccccc3)nn2)COc2cccnc21 [Example 201, (S)-1-benzyl-N-(5-methyl-4-oxo-2,3,4,5-tetrahydropyrido[3,2-b][1,4]oxazepin-3-yl)-1H-1,2,3-triazole-4-carboxamide] | – | 0.1 to 1000 | 0.1 to 1000
[2H]C([2H])([2H])N1C(=O)[C@@H](NC(=O)c2nn(Cc3ccccc3)cc2F)[C@H]2C[C@H]2c2cc(C#N)ccc21 [Example 206, 1-benzyl-N-((1aS,2S,8bR)-7-cyano-4-trideuteriomethyl-3-oxo-1,1a,2,3,4,8b-hexahydrobenzo[b]cyclopropa[d]azepin-2-yl)-4-fluoro-1H-pyrazole-3-carboxamide] | – | 0.1 to 1000 | 0.1 to 1000
CN1C(=O)[C@@H](NC(=O)c2cc(C3(c4ccccc4)CC3)on2)COc2cccnc21 [Example 77, (S)—N-(5-methyl-4-oxo-2,3,4,5-tetrahydropyrido[3,2-b][1,4]oxazepin-3-yl)-5-(1-phenylcyclopropyl)isoxazole-3-carboxamide] | 1.14 | – | –
C[C@H]1Oc2cc(S(C)(=O)=O)cnc2N(C)C(=O)[C@H]1NC(=O)c1nnc(Cc2ccccc2)[nH]1 [Example 147, 5-benzyl-N-((2R,3S)-2,5-dimethyl-8-(methylsulfonyl)-4-oxo-2,3,4,5-tetrahydropyrido[3,2-b][1,4]oxazepin-3-yl)-4H-1,2,4-triazole-3-carboxamide] | – | 0.1 to 1000 | 0.1 to 1000
CN1C(=O)[C@@H](NC(=O)c2nnc(Cc3cccc(C#N)c3)[nH]2)COc2ccccc21 [Example 163, (S)-5-(3-cyanobenzyl)-N-(5-methyl-4-oxo-2,3,4,5-tetrahydrobenzo[b][1,4]oxazepin-3-yl)-4H-1,2,4-triazole-3-carboxamide] | 0 | 0.1 to 1000 | –
CN1C(=O)[C@@H](NC(=O)c2nnc(Cc3cc(F)cc(C#N)c3)[nH]2)COc2cccnc21 [Example 162, (S)-5-(3-cyano-5-fluorobenzyl)-N-(5-methyl-4-oxo-2,3,4,5-tetrahydropyrido[3,2-b][1,4]oxazepin-3-yl)-4H-1,2,4-triazole-3-carboxamide] | – | 0.1 to 1000 | 0.1 to 1000
CN1C(=O)[C@@H](NC(=O)c2nn(Cc3cncc(F)c3)cc2F)COc2cccnc21 [Example 137, (S)-4-Fluoro-1-((5-fluoropyridin-3-yl)methyl)-N-(5-methyl-4-oxo-2,3,4,5-tetrahydropyrido[3,2-b][1,4]oxazepin-3-yl)-1H-pyrazole-3-carboxamide] | – | 0.1 to 1000 | 0.1 to 1000
CN1C(=O)[C@@H](NC(=O)c2nn(Cc3cccc(F)c3)cc2F)COc2cccnc21 [Example 135, (S)-4-Fluoro-1-(3-fluorobenzyl)-N-(5-methyl-4-oxo-2,3,4,5-tetrahydropyrido[3,2-b][1,4]oxazepin-3-yl)-1H-pyrazole-3-carboxamide] | – | 0.1 to 1000 | 0.1 to 1000
CN1C(=O)[C@@H](NC(=O)c2nn(Cc3cc(F)cc(C#N)c3)cc2F)COc2cccnc21 [Example 130, (S)-1-(3-Cyano-5-fluorobenzyl)-4-fluoro-N-(5-methyl-4-oxo-2,3,4,5-tetrahydropyrido[3,2-b][1,4]oxazepin-3-yl)-1H-pyrazole-3-carboxamide] | – | 0.1 to 1000 | 0.1 to 1000
C[C@H]1Oc2cccnc2N(C)C(=O)[C@H]1NC(=O)c1nn(Cc2cccc(C#N)c2)cc1F [Example 128, 1-(3-Cyanobenzyl)-N-((2R,3S)-2,5-dimethyl-4-oxo-2,3,4,5-tetrahydropyrido[3,2-b][1,4]oxazepin-3-yl)-4-fluoro-1H-pyrazole-3-carboxamide] | – | 0.1 to 1000 | 0.1 to 1000
O=C(NC1COc2cccnc2-n2ccnc21)c1nn(Cc2ccccc2)cc1F (stereo in doubt) [Example 154B, (S)-1-benzyl-N-(6,7-dihydroimidazo[1,2-d]pyrido[3,2-b][1,4]oxazepin-7-yl)-4-fluoro-1H-pyrazole-3-carboxamide] | – | 0.1 to 1000 | 0.1 to 1000

Second part, led by results:

Human hepatocyte CLhep Avg [1] [L/h/kg] | IC50 [2] [nM] | Structure (SMILES) | IC50 [3] [nM]
0.186 | 0.1 to 1000 | N#Cc1cccc(Cn2cc(F)c(C(=O)N[C@@H]3C(=O)Nc4c(F)cc(F)cc4[C@@H]4C[C@H]34)n2)c1 [Example 170A, 1-(3-cyanobenzyl)-N-((1aS,2S,8bR)-5,7-difluoro-3-oxo-1,1a,2,3,4,8b-hexahydrobenzo[b]cyclopropa[d]azepin-2-yl)-4-fluoro-1H-pyrazole-3-carboxamide] | –
0 | 0.1 to 1000 | CN1C(=O)[C@@H](NC(=O)c2nnc(Cc3cccc(C#N)c3)[nH]2)COc2cccnc21 [Example 161, (S)-5-(3-cyanobenzyl)-N-(5-methyl-4-oxo-2,3,4,5-tetrahydropyrido[3,2-b][1,4]oxazepin-3-yl)-4H-1,2,4-triazole-3-carboxamide] | –
0.96 | 0.1 to 1000 | CN1C(=O)[C@@H](NC(=O)c2cc(Cc3ccccc3)on2)COc2cccnc21 [Example 142, (S)-5-Benzyl-N-(5-methyl-4-oxo-2,3,4,5-tetrahydropyrido[3,2-b][1,4]oxazepin-3-yl)isoxazole-3-carboxamide] | –
0.72 | 0.1 to 1000 | CN1C(=O)[C@@H](NC(=O)c2nnc(Cc3ccccc3)o2)CCc2cccnc21 [Example 148A, (S)-5-benzyl-N-(9-methyl-8-oxo-6,7,8,9-tetrahydro-5H-pyrido[2,3-b]azepin-7-yl)-1,3,4-oxadiazole-2-carboxamide] | –
0.66 | 0.1 to 1000 | [2H]C([2H])([2H])N1C(=O)[C@@H](NC(=O)c2nn(Cc3ccccc3)cc2F)[C@@H](C)Oc2ncccc21 [Example 205, 1-benzyl-N-((3S,4R)-1-trideuteriomethyl-4-methyl-2-oxo-1,2,3,4-tetrahydropyrido[2,3-b][1,4]oxazepin-3-yl)-4-fluoro-1H-pyrazole-3-carboxamide] | –
– | 0.1 to 1000 | CN1C(=O)[C@@H](NC(=O)c2nc(C#N)c(Cc3ccccc3)s2)COc2cccnc21 [Example 151, (S)-5-benzyl-4-cyano-N-(5-methyl-4-oxo-2,3,4,5-tetrahydropyrido[3,2-b][1,4]oxazepin-3-yl)thiazole-2-carboxamide] | 0.1 to 1000
– | 0.1 to 1000 | CN1C(=O)[C@@H](NC(=O)c2cc(F)n(Cc3ccc(F)cc3)n2)COc2cccnc21 [Example 166, (S)-5-fluoro-1-(4-fluorobenzyl)-N-(5-methyl-4-oxo-2,3,4,5-tetrahydropyrido[3,2-b][1,4]oxazepin-3-yl)-1H-pyrazole-3-carboxamide] | 0.1 to 1000
– | 0.1 to 1000 | CN1C(=O)[C@@H](NC(=O)c2nnc(Cc3ccccc3)s2)[C@H]2C[C@H]2c2cccnc21 [Example 120A, 5-benzyl-N-((1aS,2S,8bR)-4-methyl-3-oxo-1,1a,2,3,4,8b-hexahydrocyclopropa[d]pyrido[2,3-b]azepin-2-yl)-1,3,4-thiadiazole-2-carboxamide] | 0.1 to 1000
– | 0.1 to 1000 | Cc1c(Cl)c(C(=O)N[C@H]2COc3ccccc3N(C)C2=O)nn1Cc1ccccc1 [Example 4, (S)-1-benzyl-4-chloro-5-methyl-N-(5-methyl-4-oxo-2,3,4,5-tetrahydrobenzo[b][1,4]oxazepin-3-yl)-1H-pyrazole-3-carboxamide] | 0.1 to 1000
– | 0.1 to 1000 | C[C@H]1Oc2cc(C#N)cnc2N(C)C(=O)[C@H]1NC(=O)c1nnc(Cc2ccccc2)[nH]1 [Example 150, 5-benzyl-N-((2R,3S)-8-cyano-2,5-dimethyl-4-oxo-2,3,4,5-tetrahydropyrido[3,2-b][1,4]oxazepin-3-yl)-4H-1,2,4-triazole-3-carboxamide] | 0.1 to 1000
